Experimental data taken from PubChem BioAssay (NCI).
“And” between values parts separate entries of the source, which are not always exact repeats. Identical values can stand only once.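 Step 1: Grow cells in 96-well plates. Step 2: Expose to compound for 48 hours at 5 concentrations. Step 3: Interpolate endpoints linearly; if unreached, use highest concentration. Here, GI50 denotes the concentration required for 50% inhibition of growth. TGI marks complete inhibition of growth.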

Experiments:
Experiment in all cases: NCI anticancer screen, dose series, 48 h
[1] = system: A498 renal
[2] = system: A549 NSCLC
[3] = system: CAKI-1 renal
[4] = system: EKVX NSCLC
[5] = system: HCT-15 colon
[6] = system: HOP-62 NSCLC
[7] = system: NCI-H23 lung
[8] = system: NCI/ADR-RES ovarian
[9] = system: RXF 393 renal
[10] = system: SR leukemia

SMILES | TGI [1] | TGI [2] [µM] | TGI [3] [µM] | TGI [4] [µM] | TGI [5] [µM] | TGI [6] [µM] | TGI [7] | TGI [8] [µM] | TGI [9] [µM] | TGI [10] [µM] | GI50 [1] | GI50 [2] [µM] | GI50 [3] [µM] | GI50 [4] | GI50 [5] | GI50 [6] [µM] | GI50 [7] | GI50 [8] | GI50 [9] [µM] | GI50 [10] [µM]
C=C1C(=O)O[C@H]2[C@H](OC(C)=O)[C@@H](C)CCC/C(C)=C/CC[C@@]3(C)O[C@@H]3C[C@@H]12 | 8.76 µM | 34.6 | 5.37 | 8.79 | 10.1 | 43.6 | 10.8 µM | 4 | 5.08 | 6.02 | – | – | – | – | – | – | – | – | – | –
Cc1ccc2c(c1)C(C)Cc1c(Cl)ncnc1N2C (stereo not given) | 4.78 µM | > 100 | > 100 | 26.3 | 14.1 | 22.2 | 22.7 µM | 23.1 | 8.62 | > 100 | 2.08 µM | 4.26 | 3.22 | 2.33 µM | 3.08 µM | 3.74 | 3.29 µM | 2.73 µM | 2.87 | 3.53
COc1ccc(-n2cc(-c3cc(OC)c(OC)c(OC)c3)nc2SCc2ccccc2)cc1OC | > 100 µM | > 100 | > 100 | > 100 | > 100 | > 100 | > 100 µM | > 100 | > 100 | > 100 | > 100 µM | 48.8 | > 96.6 | 57.9 µM | 33.3 µM | > 100 | > 100 µM | > 100 µM | 56.3 | 44.1
Nc1c([N+](=O)[O-])cc2c3c(cccc13)CC2 | > 100 µM | > 100 | > 100 | > 100 | > 100 | > 100 | > 100 µM | > 100 | 74.2 | > 100 | – | – | – | – | – | – | – | – | – | –
O=C1C=CC[C@H](/C=C/c2ccccc2)O1 | 6.91 µM | > 100 | 14.4 | > 50.1 | 22.2 | > 61.6 | 10.7 µM | > 23.2 | > 100 | > 100 | 1.45 µM | 3.56 | 1.05 | 6.48 µM | 3.14 µM | 7.44 | 2.14 µM | 3.12 µM | 5.23 | 2.78
COc1ccc(/C=C(\C#N)n2nnc3ccccc32)cc1 | 0.779 µM | > 100 | > 84.6 | > 100 | > 100 | 25.8 | 50.4 µM | 28.2 | 0.607 | > 39.6 | 0.188 µM | 0.235 | 0.0638 | 0.431 µM | 0.0682 µM | 0.486 | 0.572 µM | 0.0604 µM | 0.15 | 0.0555
CC[C@@]1(OC(=O)CN)C(=O)OCc2c1cc1n(c2=O)Cc2cc3c(N)cccc3nc2-1 | 0.156 µM | 1.77 | 0.582 | > 100 | > 100 | – | 0.0765 µM | 0.258 | 0.476 | – | < 0.016 µM | < 0.0129 | < 0.01 | 0.265 µM | 0.249 µM | < 0.01 | < 0.01 µM | < 0.01 µM | 0.0352 | < 0.01
Cc1cc(=O)[nH]c2cc3c(c4c(n3Cc3ccc(Cl)cc3Cl)CC(C)(C)CC4=O)c(O)c12 | > 100 µM | > 100 | > 100 | > 100 | > 100 | > 100 | > 100 µM | > 100 | > 100 | > 100 | > 100 µM | 46.3 | > 100 | 36.4 µM | > 100 µM | 77.7 | 39.6 µM | > 100 µM | > 100 | 25.2
Oc1[nH]c2c(Br)cccc2c1C1=Nc2ccccc2/C1=N/OCCN1CCCC1 | 2.21 µM and 7.36 µM | – | 2.24 | > 100 | – | 2.65 | 4.17 µM and 36.5 µM | – | 9.66 | 1.77 | 0.739 µM and 1.34 µM | 1.91 | 0.332 | 1.31 µM and 2.09 µM | 0.719 µM and 0.496 µM | 0.704 | 1.02 µM and 0.959 µM | 0.793 µM and 0.766 µM | 0.942 | 0.373
COc1cc(NC(=O)CSc2nc3ccc(C)cc3c(=O)n2Cc2ccccc2)cc(OC)c1OC | 5.55 µM | > 100 | > 100 | > 100 | > 100 | 5.8 | 42.3 µM | > 100 | 8.23 | > 100 | 1.01 µM | 10.5 | 5.08 | 8.59 µM | > 100 µM | 2.3 | 8.3 µM | 8.97 µM | 2.24 | 52.7
O=C(Nc1ccc2[nH]c(=S)sc2c1)Nc1ccccc1F | > 100 µM | > 100 | 14.6 | > 100 | > 100 | > 100 | > 100 µM | > 100 | > 100 | > 100 | 40.5 µM | 51.2 | 2.71 | 22.3 µM | 20.4 µM | 37.2 | 35.8 µM | 21.9 µM | 54.5 | 17.5
Cc1cc(Cc2cc(C)cc(C(C)(C)C)c2O)c(O)c(Cc2cc(C)cc(C(C)(C)C)c2O)c1 | 7.2 µM | 11.3 | 13.5 | 9 | 11.3 | 7.94 | 5.34 µM | 12.6 | 8.21 | > 28.6 | – | – | – | – | – | – | – | – | – | –
N#CC1=C(N)Oc2c(sc3c(Br)cccc23)C1c1ccc(Br)cc1 (stereo not given) | 9.56 µM | 2.23 | 22.2 | 20.5 | 11.4 | 2.62 | 13.4 µM | 5.14 | 6.18 | 5.91 | 0.633 µM | 0.424 | 1.97 | 3.31 µM | 0.601 µM | 0.41 | 1.58 µM | 0.416 µM | 1.97 | 0.208
